Several values for one entry are separate records, joined by “and”; a condition that tells them apart may be missing. Equal values may be shown once. Activity calls are given as the source filed them.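 How the source made its calls: active means compounds giving half or more protection of infected cells from virus-caused growth loss, again on retest; inactive means the rest.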
Tested on: CEM cells HIV-1 protection, formazan growth assay
Experiment: NCI AIDS Antiviral Assay
Settings: for IC50: measured here: growth of uninfected CEM cells
Outline: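 Soluble formazan readout of cell growth; CEM cells ± HIV-1; 5 drug concs. ≥50% protection → retest; ≥50% again = moderately active; reproducible 100% = confirmed active.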

| SMILES | EC50 | IC50 | outcome |
| --- | --- | --- | --- |
| C=CC[C@H](C[C@H](C[C@H](C[C@H](C[C@H](C[C@H](C[C@H](C[C@H](C[C@H](C[C@H](CCCCC)OC)OC)OC)OC)OC)OC)OC)OC)OC)OC | > 200 µM | 115 µM |  |
| CC(/C=C/c1ccccc1)=Nc1ccccc1 | > 23.4 µM | > 23.4 µM |  |
| CC(C)CCCC(C)[C@H]1CC[C@H]2[C@@H]3CC[C@H]4C[C@@H](CCC=C(c5cc(Cl)c(OC(=O)C(C)C)c(C(=O)O)c5)c5cc(Cl)c(OC(=O)C(C)C)c(C(=O)O)c5)CC[C@]4(C)[C@H]3CC[C@]12C (some centres not stated) | 105 µM | 126 µM |  |
| CC(=O)c1ccc2c(c1)CC1(C2)Cc2ccc3c(c2C1=O)CCC3 (configuration not stated) | > 200 µM | 33.1 µM |  |
| O=C(CP(=O)(O)O)NC(CC(=O)OCc1ccccc1)C(=O)OCc1ccccc1 (configuration not stated) | > 100 µM | > 100 µM |  |
| CCOc1ccc(NC(=O)CC2Sc3ccccc3NC2=O)cc1 (configuration not stated) | > 11 µM | > 11 µM |  |
| C=CCN1CCC(c2cc(C(=O)OCC)[nH]c2-c2cc(C)no2)C1=O (configuration not stated) | > 200 µM | > 200 µM |  |
| COc1cccc(C=C2N=C(C)N(n3c(-c4ccccc4)nc4ccccc4c3=O)C2=O)c1 | > 200 µM | 72.4 µM |  |
| O=C1CC2C1C1C=CC2n2c(=O)n(-c3ccccc3)c(=O)n21 (configuration not stated) | > 224 µM | > 224 µM |  |
| CCOC(=O)CCc1cn2cc(Br)nc(OC)c2n1 | > 200 µM | 25.1 µM |  |
| Cn1c(=O)n2n(c1=O)C1CCC2CC1 | > 1290 µM | 437 µM |  |
| NC(C(F)(F)F)(C(F)(F)F)P(=O)(Cc1ccccc1)Cc1ccccc1 | > 200 µM | 145 µM |  |
| O=c1c(Cc2ccccc2)c(O)cc2n1CCC2 | > 148 µM | > 148 µM |  |
| NC(N)=NS(=O)(=O)c1ccc(-n2sc3ccccc3c2=O)cc1 | 4.37 µM | 19.1 µM |  |
| Cn1cc2ccccc2c1-c1nc(F)nc(OCC(=O)[C@H]2CCC3[C@@H]4CCC5=CC(=O)CC[C@]5(C)C4[C@@H](O)C[C@@]32C)n1 (some centres not stated) | > 9.12 µM | 2.75 µM |  |
| NC(C(=O)O)C(CC(=O)O)c1ccccc1 (configuration not stated) | > 200 µM | 112 µM and > 200 µM |  |
| CC(=O)OCC1OC(n2c(C)c(N=Nc3ccccc3)c(C)c(C#N)c2=S)C(OC(C)=O)C(OC(C)=O)C1OC(C)=O (configuration not stated) | > 200 µM | > 200 µM |  |
| [C-]#[O+].[C-]#[O+].[C-]#[O+].[C-]#[O+].[C-]#[O+].[Mo+2].[Mo+4].[c-]1[c-][c-][cH-][c-]1.[c-]1[c-][c-][cH-][c-]1.c1ccc([PH+](CC[PH+](c2ccccc2)c2ccccc2)c2ccccc2)cc1 | > 4.37 µM | 2.69 µM |  |
| COc1cc(C=Nc2ccc(C(C)C)cc2)cc(OC)c1OC | > 16.6 µM | > 16.6 µM |  |
| S=c1[nH][nH]c(=S)c2c1[nH]c(=S)n2Cc1ccccc1 | 41.7 µM | 43.7 µM |  |

| SMILES | EC50 | IC50 | outcome |
| --- | --- | --- | --- |
| O=C1CCC2(c3ccc(Cl)cc3)Nc3ccc(Cl)cc3N12 (configuration not stated) | > 16.2 µM | > 16.2 µM |  |
| CCC(C#N)N(Cc1cccc(CN(C(C)=O)C(C#N)CC)c1)C(C)=O (configuration not stated) | > 200 µM | 191 µM |  |
| O=C1CSC(=O)N1c1ccccc1 | > 186 µM | > 186 µM |  |
| N#CC(C(=O)CCC(=O)Nc1cccc(C(F)(F)F)c1)c1ccc(Cl)cc1 (configuration not stated) |  |  | inactive |
| N#C/C(=C\c1cc(O)c(O)c([N+](=O)[O-])c1)C(=O)NCCCNC(=O)/C(C#N)=C/c1cc(O)c(O)c([N+](=O)[O-])c1 | > 200 µM | 72.4 µM |  |
| Nc1ccn(C2OC(CO)C(F)C2F)c(=O)n1 (configuration not stated) | > 501 µM | > 501 µM |  |
| Cc1cc(C)nc(NS(=O)(=O)c2ccc(N=c3c4ccccc4n(-c4ccccc4)c4ccccc34)cc2)n1 |  |  | inactive |
| O=C(C#Cc1ccccc1)N1c2ccccc2CC1c1c[nH]c2ccccc12 (configuration not stated) | > 20 µM | 8.32 µM |  |
| O=C1CC2SC(COCc3ccccc3)(CCN2Cc2ccccc2)C1 (configuration not stated) |  | 41.7 µM | inactive |
| CCOC(=O)C1=C(OS(=O)(=O)C(F)(F)F)CCCC1 | > 200 µM | > 200 µM |  |
| C[C@@H]1CC[C@@]2(OC1)O[C@H]1C[C@H]3[C@@H]4CC[C@H]5C[C@@H](OC6OC(CO)C(OC7OC(CO)C(O)C(OC8OCC(O)C(O)C8O)C7OC7OC(CO)C(O)C(O)C7O)C(O)C6O)[C@H](O)C[C@]5(C)[C@H]4CC[C@]3(C)[C@H]1[C@@H]2C (some centres not stated) | > 2 µM | 1 µM |  |
| O=C(NNc1ccccc1)NNc1ccccc1 (tested in a mixture with another compound) | > 200 µM | 31.6 µM |  |
| COc1cc(C2=NC(C(C)C)CO2)c(OC)c(OC)c1OC (configuration not stated) | > 43.7 µM | > 43.7 µM |  |
| Cn1nc2ccc3nccc(NCCNCCO)c3c2n1 | > 871 µM | 3.89 µM |  |
| O=C(CN1CCCC1)Nc1ccc2c(c1)C1Oc3ccccc3CC1CO2 (configuration not stated) |  |  | inactive |
| CCOC(=O)Nc1ccc2c(c1)/C(=N\NC(N)=S)c1ccccc1-2 | > 200 µM | 3.39 µM |  |
| CC12CCC3=C(CSC4=C3CSc3ccccc34)C1=CCCC2=O (configuration not stated) | > 200 µM | > 200 µM |  |
| C#CC1(O)CCC2[C@@H]3CCc4cc(Oc5nc(F)nc(-c6c7ccccc7cn6C)n5)ccc4C3CC[C@@]21C (some centres not stated) | > 10 µM | > 10 µM |  |
| Cc1ccc(C(=O)/C=C/c2ccccc2Cl)cc1 | > 5.62 µM | > 5.62 µM |  |
| COC(=O)N/N=C(\C)C(CN1CCCCC1)C(C1=C(O)c2ccccc2OC1)c1ccccc1 (configuration not stated) | > 72.4 µM | 42.7 µM |  |
